# From patent publication US20230141823A1, “PREBIOTIC AND PROBIOTIC TREATMENT TO REDUCE ORAL DYSBIOSIS AND PROMOTE EUBIOSIS” (FUNDACIÓN PARA EL FOMENTO DE LA INVESTIGACIÓN SANITARIA Y …, priority 2019, published 2023)
# Where two headings read alike, the source gives them in different places.
# How the values were obtained:
# [1] = in vivo; cited from earlier work
# [2] = test system: oral biofilms grown from unstimulated saliva; details: 6.5 mM nitrate
# Procedure: (§1) BHI medium (Biolife) with an additional 0.05 mg/L haemin, 0.005 mg/L menadione and 0.2 mM vitamin K (all Sigma-Aldrich) was prepared of which 100 pi was added to each well for background impedance measurements. An additional 25 µl of a 65 mM nitrate in water or just water were added to each well of the nitrate or control condition, respectively. Then, 125 pi freshly collected saliva was added, leading to a final concentration of 6.5 mM nitrate in the nitrate condition. The E-Plate 96 was placed in the xCELLigence system inside an incubator at 37° C. Every 10 minutes, a Cell Index measurement was taken. […] For Oh measurements, 1:1 medium and saliva mixtures were used. Then, duplicates of supernatant and biofilm were taken after 5 h and 9 h of growth. The supernatant was sampled and stored at −20° C. until pH, nitrate, nitrite, ammonium and lactate measurements. After this, a PBS washing step was performed and duplicates of biofilms were resuspended together in 200 pi PBS for storage at −20° C. until DNA isolation for sequencing.
# For DNA extraction, the biofilms were resuspended in 100 pi PBS and disaggregated 30 s in a sonicator bath (model Raypa VCI-50) at low ultrasound intensity. After this, DNA was isolated by MagNA Pure LC 2.0 Instrument (Roche Diagnostics), using the MagNA Pure LC DNA Isolation Kit III for Bacteria and Fungi (Roche Diagnostics) following the manufacturer's instructions with an additional enzymatic lysis step: to a salivary pellet in 100 pi PBS, […] lysis buffer and […] of enzyme mix, containing 20 mg/ml lysozyme ([…]), 5 mg/l lysostaphin (Sigma-Aldrich) and 0.625 mg/ml mutanolysin (Sigma-Aldrich), were added and incubated for 60 min at 37° C. DNA was resuspended in […] elution buffer and frozen at −20° C. until further analysis. To determine the amount of DNA for sequencing, the Quant-iT™ PicoGreen® dsDNA Assay Kit (ThermoFisher) and a Qubit™ 3 Fluorometer (ThermoScientific) were used, according to manufacturer's instructions.
# A pre-amplification step of the V1-V5 regions of the 16S rRNA gene was performed, following Dzidic et al 2019. An Illumina amplicon library was performed following the 16S rDNA gene Metagenomic Sequencing Library Preparation Illumina protocol (Part #15044223 Rev. A). The gene-specific primer sequences used in this protocol were 16S Amplicon F (SEQ ID NO: 8) and 16S Amplicon R (SEQ ID NO: 9), targeting the 16S rDNA gene V3 and V4 regions, resulting in a single amplicon of 460 bp. Overhang adapter sequences were used together for compatibility with Illumina index and sequencing adapters. After 16S rDNA gene amplification, the DNA was sequenced on a MiSeq Sequencer according to manufacturer's instructions (Illumina) using the 2×300 bp paired-ends protocol.
# The sequences were analyzed according to Boix-Amoros et al., 2016. In short, the reads were quality-filtered and end-trimmed in 10 bp windows with Prinseq. The PCR chimeras were removed with UCHIME according to Edgar et al., 2011. Only filtered sequences >250 bp were used to be taxonomically assigned at the genus level with the classifier of the Ribosomal Database Project (Wang et al., 2007), using a confidence interval of 80%. Operational Taxonomic Unit (OTU) picking was performed using VSEARCH (Rognes, 2016) at a 97% of sequence identity. Each OTU was aligned centroid using BLAST at 97% of identity and 100% query coverage, and retrieved only those species that agreed with the previous classification of the centroid at genus level provided by RDP classifier.
# Overall R programming language was used for statistical computing to perform downstream analyses. Genera with an abundance of <0.01% were removed from all groups.
# [3] = test system: oral biofilms grown from unstimulated saliva
# Procedure: as §1
smiles,measurement,setting,value
"O=[N+]([O-])O [Nitrate, nitrate]",nitrate recycled by the salivary glands into saliva,[1],25%
same,nitrate removed from the body by the kidneys into the urine,[1],Around 75%
same,increase of Neisseria compared to control condition,[2]; 5 h,3.5 ×
same,Bacterial abundance Aggregatibacter (Average),[2]; 5 h (n = 12),0.55%
same,Bacterial abundance Alloprevotella (Average),[2]; 5 h (n = 12),0.21%
same,Bacterial abundance Fusobacterium (Average),[2]; 5 h (n = 12),0.15%
same,Bacterial abundance Gemella (Average),[2]; 5 h (n = 12),2.76%
same,Bacterial abundance Granulicatella (Average),[2]; 5 h (n = 12),2.16%
same,Bacterial abundance Haemophilus (Average),[2]; 5 h (n = 12),7.30%
same,Bacterial abundance Leptotrichia (Average),[2]; 5 h (n = 12),0.14%
same,Bacterial abundance Neisseria (Average),[2]; 5 h (n = 12),20.65%
same,Bacterial abundance Other (Average),[2]; 5 h (n = 12),3.64%
same,Bacterial abundance Porphyromonas (Average),[2]; 5 h (n = 12),0.56%
same,Bacterial abundance Prevotella (Average),[2]; 5 h (n = 12),1.99%
same,Bacterial abundance Rothia (Average),[2]; 5 h (n = 12),0.53%
same,Bacterial abundance Streptococcus (Average),[2]; 5 h (n = 12),45.29%
same,Bacterial abundance Viellonella (Average),[2]; 5 h (n = 12),10.84%
same,Bacterial abundance unclass. Neisseriaceae (Average),[2]; 5 h (n = 12),0.95%
same,Bacterial abundance unclass. Pasteurellaceae (Average),[2]; 5 h (n = 12),2.00%
same,Bacterial abundance unclass. Veillonellaceae (Average),[2]; 5 h (n = 12),0.26%
same,Rothia higher than in control condition,[2]; 5 h and 9 h,2.7 ×
same,increase of Neisseria compared to control condition,[2]; 9 h,4.9 ×
same,Bacterial abundance Aggregatibacter (Average),[2]; 9 h (n = 12),0.72%
same,Bacterial abundance Alloprevotella (Average),[2]; 9 h (n = 12),0.37%
same,Bacterial abundance Fusobacterium (Average),[2]; 9 h (n = 12),0.38%
same,Bacterial abundance Gemella (Average),[2]; 9 h (n = 12),1.83%
same,Bacterial abundance Granulicatella (Average),[2]; 9 h (n = 12),1.56%
same,Bacterial abundance Haemophilus (Average),[2]; 9 h (n = 12),8.86%
same,Bacterial abundance Leptotrichia (Average),[2]; 9 h (n = 12),0.16%
same,Bacterial abundance Neisseria (Average),[2]; 9 h (n = 12),20.99%
same,Bacterial abundance Other (Average),[2]; 9 h (n = 12),4.80%
same,Bacterial abundance Porphyromonas (Average),[2]; 9 h (n = 12),1.51%
same,Bacterial abundance Prevotella (Average),[2]; 9 h (n = 12),2.78%
same,Bacterial abundance Rothia (Average),[2]; 9 h (n = 12),0.25%
same,Bacterial abundance Streptococcus (Average),[2]; 9 h (n = 12),31.75%
same,Bacterial abundance Viellonella (Average),[2]; 9 h (n = 12),20.40%
same,Bacterial abundance unclass. Neisseriaceae (Average),[2]; 9 h (n = 12),1.07%
same,Bacterial abundance unclass. Pasteurellaceae (Average),[2]; 9 h (n = 12),2.12%
same,Bacterial abundance unclass. Veillonellaceae (Average),[2]; 9 h (n = 12),0.38%
same,change of Kingella,"[2]; after 5 h, p<0.05",increased significantly
same,"Porphyromonas, Fusobacterium, Leptotrichia, Alloprevotella, Dialister and Parvimonas versus control",[2]; p<0.05 at 5 h and/or 9 h,significantly lower
same,change of caries-associated Atopobium and Oribacterium,[2]; p<0.05 at 5 h or 5 h and 9 h,decreased significantly
same,real-time impedance measurements of biofilm growth compared to control biofilms,[3]; 6.5 mM nitrate (403 mg/L),did not show significant changes
same,biofilm protein levels compared to control,"[3]; 6.5 mM nitrate, 5 h and 9 h",did not differ significantly
